The source of these data is patent EP4069192B1 (Solis Herrera, Arturo, priority 2019, dated 2021).

The subject of data set [1] is human PBLs (leukocytes of peripheral blood). The settings on record: 48 hours, MTT.
Description: Thereby, cell viability was determined on the basis of the mitochondria-dependent reduction of MTT (3-[4,5-dimethyltiazol 2yl]-2,5-diphenyltetrazolium bromide) to formazan. […] Next cells were treated with 20 µl of MTT. After 3 hours of incubation at 37°C, the formazan blue formed in the cells was dissolved in 100 µl of SDS (sodium dodecylsulfate) for 3 hours in 37°C. The optical density was measured at 570 nm.
After the cytotoxicity tests LC50 (LC50-lethal concentration, 50%-dose required to kill half of the cells after a specified test duration) were estimated for each cell lines and PBLs (leukocytes of peripheral blood). Additionally for PBLs LC10 and LC5 were calculated.
On the basis of the results of MTT assay for human leukocytes the LC50, LC10 and LC5 were evaluated.
For data set [2], the system named is HS683 (human neuronal glioma cell line). Particulars: HS-683, 48 hours, MTT.
The subject of data set [3] is A549 (human lung adenocarcinoma epithelial cell line). The settings on record: A549, 48 hours, MTT.
A further data set relates to IFN-γ production. The procedure:
(§1) After 24 hours of incubation in 37°C/5%CO2 samples of leukocytes and supernatants were collected.
(§2) Cytokine levels were determined using ELISA kits (BD Biosciences, USA) for human IFNγ, TNF-α and IL-6 and DuoSet for human IL-3 (R&D Systems, USA) according to the producers' instructions. The optical density was measured at 450 nm using a Multiskan RC spectrophotometric reader (Thermo Labsystems, USA), Cytokine concentrations were expressed in pg/ml.

A further data set deals with TNF-α production. The procedure: as §1, §2
For the next data set, the system named is IL-6 production. How it is done: as §1, §2
For data set [4] the following is noted: rat, in vivo.
The conditions of data set [5]: in vivo.
For another data set, the system named is cell proliferation. Put plainly: cells. Particulars: Homo sapiens, read-out: doses that inhibit 50% of cell proliferation.
For data set [6] the following is noted: intranasal spray, single 3 mg dose, women, before emergence from general anesthesia; cited from earlier work.
The test system of a further data set is H1N1 virus. Particulars: 0,002 mg/kg each 24 hours; 24 hours after treatment; 15000 treated vs 15000 control chicken, control turned down the production of eggs.
A further data set has as its system WI-38 cells. Kind of data set: cells. The settings on record: Homo sapiens, WI-38, 96 h. How it is done:
(§3) Further, a proliferation test was prepared for the same three cell lines: WI-38, A549 and HS 683. 3x10^4 WI-38 cells and 2x10^4 A549 and HS 683. Cells were seeded into each wells in 96-well culture plates in appropriate culture medium with 10% FBS (fetal bovine serum). […] After 96 hours incubation in 37°C/5%CO2 MTT assay was performed for establishing the cell viability.

Another data set concerns A549 cells. Put plainly: cells. The settings on record: Homo sapiens, A549, 96 h. The procedure: as §3
The subject of another data set is HS-683. Kind of data set: cells. Particulars: Homo sapiens, Hs 683, 96 h. How it is done: as §3
[7] abbreviates: read-out: concentration that inhibits 50% of the proliferation.

≈ marks a conversion by molar mass, not a printed value.

Regarding `CN1CCC[C@H]1c1cccnc1`, the LC5 in data set [1] is on record as 0,5 mg/ml. In [1], this compound displayed an LC10 of 1000 µg/mL (≈ 6.16 mM). The LC50 in [2] was 3,5 mg/ml; in data set [3], 4,5 mg/ml. Besides, the “effect on IFN-γ production” value in the data set on IFN-γ production is “strongly decreases the level of interferon in a dose-dependent manner”. The “effect on TNF-α production” value in the data set with TNF-α production was “increases the level of cytokines in a dose-dependent manner”. Also, the “effect on IL-6 production” value in the data set with IL-6 production is reported as “no effect”. In data set [4], the mortality is 0,625 of 8 rats. In addition, the healing effect entry in data set [5] was “increased healing effect”. In addition, the IC50 in the data set with cell proliferation was over 1000 µg/mL; in the data set on WI-38 cells (setting [7]) it was 1000 µg/mL (≈ 6.16 mM); with A549 cells (setting [7]), 2000 µg/mL (≈ 12.3 mM); with HS-683 (setting [7]), 2900 µg/mL (≈ 17.9 mM). Besides, the “pain scores during the first day post-surgery” value in data set [6] is on record as “significant reduction in pain scores”. The “risks of hypertension of tachycardia” value in data set [6] is “not increasing the risks”. For the same compound, the production of eggs result in the data set with H1N1 virus is listed as “began to lay off eggs”. The IC99 in the data set on WI-38 cells (read-out: concentration that inhibits a proliferation of 99%) was 4500 µg/mL; in the data set with A549 cells (read-out: concentration that inhibits 99% of the proliferation), 5500 µg/mL; in the data set with HS-683 (read-out: concentration at which 99% of proliferation are inhibited), 5500 µg/mL.
